Experimental data published in ChEMBL document CHEMBL5046245, “Identification of Pyruvate Carboxylase as the Cellular Target of Natural Bibenzyls with Potent Anticancer Activity against Hepatocellular Carcinoma via Metabolic Reprogramming” (J Med Chem, 2022).
Active and inactive are the calls of the source. No cut-off for these calls is given here.

Columns and labels:
[1] = Competitive inhibition of pyruvate carboxylase (unknown origin) assessed as inhibition constant at varying concentrations of ATP; design: species or system Homo sapiens
[2] = Inhibition of pyruvate carboxylase in human HCCLM3 cell lysate measured upto 24 hrs by PC assay kit; assay type: subcellular
[3] = Antiproliferative activity against human HCCLM3 cells assessed as inhibition of cell growth measured after 48 hrs by MTT assay; assay type: functional, cell-based; conditions: HCCLM3, 48 h
HepG2 [4] = experiment: Antiproliferative activity against human HepG2 cells assessed as inhibition of cell growth measured after 48 hrs by MTT assay; assay type: functional, cell-based; conditions: HepG2, 48 h
HepG2 [5] = experiment: Cytotoxicity against human HepG2 cells assessed as cell viability at 8 nM incubated for 48 hrs by MTT assay; assay type: functional, cell-based
HepG2 [6] = experiment: Cytotoxicity against human HepG2 cells assessed as cell viability at 62.5 to 250 nM preincubated for 48 hrs by MTT assay; assay type: functional, cell-based; conditions: dose 62.5-250 nM
HepG2 [7] = experiment: Cytotoxicity against human HepG2 cells assessed as cell viability at 1 to 4 nM incubated for 2 hrs by MTT assay; assay type: functional, cell-based; conditions: dose 1-4 nM
[8] = Inhibition of pyruvate carboxylase in human HCCLM3 cells measured upto 24 hrs by PC assay kit; assay type: cell-based
HepG2 [9] = experiment: Competitive inhibition of recombinant pyruvate carboxylase in human HepG2 cell lysate in presence of Erianin at 20 uM for 120 mins followed by irradiation of 365 nm UV light for 15 min by Native -PAGE analysis; assay type: subcellular
[10] = Inhibition of pyruvate carboxylase in human HepG2 cells measured upto 24 hrs by PC assay kit; assay type: cell-based
[11] = Inhibition of pyruvate carboxylase in human HepG2 cell lysate measured upto 24 hrs by PC assay kit; assay type: subcellular
[12] = Non-competitive inhibition of pyruvate carboxylase (unknown origin); design: species or system Homo sapiens

Compound | IC50 [2] | IC50 [3] | IC50 (HepG2 [4]) | also measured
N[C@@H](CC(=O)O)C(=O)O [ASPARTIC ACID] |  |  |  | Ki [1]: 700 nM
COc1cc(CCc2cc(O)c(OC)c(OC)c2)ccc1O | > 50000 nM | > 100 µM | 1090 nM | 
COc1cc(O)cc2c1-c1c(O)cc(O)cc1[C@@H](O)C2 | > 50000 nM | > 100 µM | > 100000 nM | 
COc1ccc(CC(CCNC(=O)CNC(=O)[C@H](CCCCNC(=O)CCCC[C@@H]2SC[C@@H]3NC(=O)N[C@@H]32)NC(=O)c2ccc(N=[N+]=[N-])cc2)c2cc(OC)c(OC)c(OC)c2)cc1O (some centres not stated) |  |  |  | Activity (HepG2 [5]): inactive
COc1ccc(CC(O)c2cc(OC)c(OC)c(OC)c2)cc1O (configuration not stated) |  |  |  | Activity (HepG2 [6]): Active
COc1ccc(CC(CCOC(=O)CCCCCNC(=O)CCCC[C@@H]2SC[C@@H]3NC(=O)N[C@@H]32)c2cc(OC)c(OC)c(OC)c2)cc1O (some centres not stated) |  |  |  | Activity (HepG2 [7]): inactive
COc1cc(O[C@@H]2O[C@H](CO)[C@@H](O)[C@H](O)[C@H]2O)cc2c1-c1c(O)cccc1[C@H](O)C2 | > 50000 nM | > 100 µM | > 100000 nM | 
COc1ccc(/C=C/c2cc(O)cc(O[C@@H]3O[C@H](CO)[C@@H](O)[C@H](O)[C@H]3O)c2)cc1O [RHAPONTIN] | > 50000 nM | > 100 µM | > 100000 nM | 
COc1cc(O)cc2c1-c1c(O)cccc1[C@@H](O)C2 | 264 nM | > 100 µM | 2580 nM | IC50 [8]: 47 nM
COc1ccc(CC(CCO)c2cc(OC)c(OC)c(OC)c2)cc1O (configuration not stated) |  |  |  | Activity (HepG2 [6]): Active; Activity (HepG2 [5]): inactive
COc1cc(CCc2cc(OC)c(O)c(OC)c2)ccc1O [MOSCATILIN] | 191 nM | 2.09 µM | 3020 nM | IC50 [8]: 34 nM
COc1cc(O[C@@H]2O[C@H](CO)[C@@H](O)[C@H](O)[C@H]2O)cc2ccc3cccc(O)c3c12 | 65 nM | 29.9 µM | 2660 nM | IC50 [8]: 97 nM
COc1cc(O)c2c(c1)CCc1cccc(O)c1-2 | 204 nM | 8.54 µM | 1740 nM | IC50 [8]: 104 nM
COc1cc(O)cc2c1-c1c(O)cccc1C[C@@H]2O | > 50000 nM | > 100 µM | > 100000 nM | 
COc1cc(O)cc2c1-c1c(O)cccc1CC2 [HIRCINOL] | > 50000 nM | > 100 µM | > 100000 nM | 
COc1ccc(CC(CCNC(=O)COCCOCCOCCNC(=O)[C@H](CCCCNC(=O)CCCC[C@@H]2SC[C@@H]3NC(=O)N[C@@H]32)NC(=O)CCC2(C)N=N2)c2cc(OC)c(OC)c(OC)c2)cc1O (some centres not stated) |  |  |  | Activity (HepG2 [5]): inactive
COc1cc(O)cc(CCc2ccc(O)c(OC)c2)c1 [GIGANTOL] | 125 nM | 57.9 µM | 1880 nM | IC50 [8]: > 50000 nM
COc1cc(O)cc2c1-c1c(O)cc(O)cc1C[C@@H]2O | > 50000 nM | > 100 µM | > 100000 nM | 
COc1ccc(CC(CCNC(=O)[C@H](CCCCNC(=O)CCC2(C)N=N2)NC(=O)CCCC[C@@H]2SC[C@@H]3NC(=O)N[C@@H]32)c2cc(OC)c(OC)c(OC)c2)cc1O (some centres not stated) |  |  |  | Activity (HepG2 [5]): inactive
COc1ccc(CCc2cc(OC)c(OC)c(OC)c2OCCOC(=O)CCCCCNC(=O)CCCC[C@@H]2SC[C@@H]3NC(=O)N[C@@H]32)cc1O |  |  |  | Activity (HepG2 [7]): inactive
COc1ccc(CC(CCNC(=O)[C@H](CCCCNC(=O)CCCC[C@@H]2SC[C@@H]3NC(=O)N[C@@H]32)NC(=O)c2ccc(N=[N+]=[N-])cc2)c2cc(OC)c(OC)c(OC)c2)cc1O (some centres not stated) |  |  |  | Activity (HepG2 [5]): inactive
COc1ccc(CC(CCNC(=O)[C@H](CCCCNC(=O)c2ccc(N=[N+]=[N-])cc2)NC(=O)CCCC[C@@H]2SC[C@@H]3NC(=O)N[C@@H]32)c2cc(OC)c(OC)c(OC)c2)cc1O (some centres not stated) |  |  |  | Activity (HepG2 [5]): inactive
COc1ccc(CC(CCNC(=O)[C@H](CCCCNC(=O)CCCC[C@@H]2SC[C@@H]3NC(=O)N[C@@H]32)NC(=O)CCC2(C)N=N2)c2cc(OC)c(OC)c(OC)c2)cc1O (some centres not stated) |  |  |  | Activity (HepG2 [5]): inactive
COc1cc(O)cc(CCc2ccc(OC)c(O)c2)c1 | > 50000 nM | > 100 µM | > 100000 nM | 
COc1ccc(CC(CCNC(=O)COCCOCCOCCNC(=O)[C@H](CCCCNC(=O)CCCC[C@@H]2SC[C@@H]3NC(=O)N[C@@H]32)NC(=O)c2ccc(N=[N+]=[N-])cc2)c2cc(OC)c(OC)c(OC)c2)cc1O (some centres not stated) |  |  |  | Activity (HepG2 [5]): inactive
COc1ccc(CC(CCNC(=O)[C@H](CCCCNC(=O)CCC2(C)N=N2)N=[N+]=[N-])c2cc(OC)c(OC)c(OC)c2)cc1O (some centres not stated) |  |  |  | inhibition (HepG2 [9]): Active
O=C(O)CC(=O)C(=O)O [OXALOACETATE] | 88.8 nM |  |  | IC50 [10]: 100 nM; IC50 [11]: 88.8 nM; IC50 [8]: 100 nM
CCCCCCCCOC(=O)c1cc(O)c(O)c(O)c1 [OCTYL_GALLATE] |  |  |  | Ki [12]: 700 nM
OC[C@H]1O[C@@H](Oc2cccc3c2-c2c(O)cc(O)cc2C[C@H]3O)[C@H](O)[C@@H](O)[C@@H]1O | > 50000 nM | > 100 µM | > 6420 nM | 
Nc1ncnc2c1ncn2[C@@H]1O[C@@H]2CO[P@@](=O)(O)O[C@H]3[C@@H](O)[C@H](n4cnc5c(N)ncnc54)O[C@@H]3CO[P@@](=O)(O)O[C@H]2[C@H]1O |  |  |  | Ki [12]: 700 nM
